From article PMC8242589, “Cardiac Safety of Kinase Inhibitors – Improving Understanding and Prediction of Liabilities in Drug Discovery Using Human Stem Cell-Derived Models” (Frontiers in Cardiovascular Medicine, 2021)
“Also recorded” adds a separate entry of the source.

Tests used:
[1] = system: hSC-CMs (Cor.4U Cardiomyocytes); test: Apoptosis assay (CellEvent Caspase-3/7 Green, IncuCyte ZOOM kinetics over 24 h); assay type: cell-based, human; set-up: key to Caspase / Caspase MEAN: % of time-matched vehicle control (green object area); conditions: for Caspase / activity at 0.01 µM / activity at 0.1 µM / activity at 1 µM / activity at 10 µM: normalized to time-matched vehicle control; for activity at 0.01 µM / activity at 0.1 µM / activity at 1 µM / activity at 10 µM: Homo sapiens, Cardiomyocyte
Description: Cor.4U® Cardiomyocytes ([…], Netherlands) were cultured in 96-well plates at density of 25,000 - 30,000 cells per well. Cells were maintained at 5% CO2 and 37 °C for 4 days prior to experiments. […] The plates were incubated 2 h before compound treatment in the IncuCyte ZOOM (ESSEN BioScience, Ann Arbor, Michigan) to set a baseline before the 24 h compound treatment. […] Imaging was done using 10x microscope objective of the IncuCyteZOOM with four images per well-taken every 2 h in both phase-contrast and green fluorescence. The fluorescent nuclear signal of the apoptotic cells was separated from background with the integrated object counting algorithm, adjusted to cardiomyocytes, and the calculated total green object area per well (μm^2/well) plotted against time. Data were normalized to those of the time-matched vehicle control. Data were representative of at least three replicates per concentration.

[2] = system: hSC-CMs (Cor.4U Cardiomyocytes); test: ATP assay (CellTiter-Glo Luminescent Cell Viability Assay); assay type: cell-based, human; conditions: for ATP / viability at 0.01 µM / viability at 0.1 µM / viability at 1 µM / viability at 10 µM: normalized to time-matched DMSO control; for viability at 0.01 µM / viability at 0.1 µM / viability at 1 µM / viability at 10 µM: Homo sapiens, Cardiomyocyte
Description: Cor.4U® Cardiomyocytes (Ncardia, Netherlands) were cultured in 96-well plates at density of 25,000 – 30,000 cells per well. Cells were maintained at 5% CO2 and 37 °C for 4 days prior to experiments. The cell culture medium (Cor4U® Complete Culture Medium, cat# Ax-M-HC250E, Axiogenesis AG, Cologne, Germany) was changed every 24 h and was replaced by serum-free BMCC medium (cat# Ax-M-BMCC259, Axiogenesis AG, Cologne, Germany) 12 h prior to drug addition.
The CellTiter-Glo Luminescent Cell Viability Assay (cat# G7572, Promega, USA) was performed for quantification of the cellular ATP concentration according to manufacturer's instructions. Plates were shaken for 2 min in the dark, incubated at ambient temperature for 10 min before measuring luminescence (Integration time 0.1 seconds per well) with Luminescence Counter (Synergy H1, BioTek Instruments, Inc., Winooski, Vermont). The measured ATP concentration values were normalized to the time-matched DMSO controls. Data are representative of at least three replicates per concentration.

ROCK1 = conditions: ref [36] (RKI-1447), [37], [38] (Fasudil), [39]–[43] (Y-27632), [44], [45] (GSK-429286); read-out: Target IC50 ROCK1; cited from earlier work
[3] = system: hSC-CMs (Cor.4U Cardiomyocytes); test: CardioExcyte 96 impedance and EFP recording (beating rate, base impedance); assay type: cell-based, human; conditions: for BR / Base Imp / activity at 0.01 µM / activity at 0.1 µM / activity at 1 µM / activity at 10 µM: vs baseline before drug (taken as 100%); for activity at 0.01 µM / activity at 0.1 µM / activity at 1 µM / activity at 10 µM: Homo sapiens, Cardiomyocyte
Description: Cor.4U® Cardiomyocytes (Ncardia, Netherlands) were cultured in 96-well plates at density of 25,000 – 30,000 cells per well. Cells were maintained at 5% CO2 and 37 °C for 4 days prior to experiments.
Functional monitoring of cardiomyocytes was done using CardioExcyte® 96 (Nanion technologies GmbH, Germany). Extracellular field potential (EFP) and impedance signals were recorded from hSC-CMs that formed monolayers in the wells of the NSP-96 plate. Beating Rate (BR, per minute) was calculated as the reciprocal of the inter-spike interval (ISI) in EFP signal. Impedance signals from spontaneously beating hSC-CMs were recorded with a sampling rate of 1 ms (1 kHz), and EFP data were collected at 0.1ms (10 kHz). Data acquisition was controlled by CardioExcyte® 96 Control software as previously described ([22]). The functional parameters recorded in each concentration of test items were compared to the base line values before drug addition (taken as 100%) to define fractional change.

PI3K p110γ = conditions: ref [23]–[25] (NVP-BEZ235), [28] (GDC-0941), [33] (CAL-101), [35] (CZC24832); read-out: Target IC50 p110γ; cited from earlier work
PI3K p110β = conditions: ref [23]–[25] (NVP-BEZ235), [27] (LY 294002), [28] (GDC-0941), [32] (TGX-221), [33] (CAL-101), [35] (CZC24832); read-out: Target IC50 p110β; cited from earlier work

SMILES: O=C(NCc1cccc(O)c1)Nc1nc(-c2ccncc2)cs1 [RKI-1447]
- Caspase ([1]; 0.01 µM, 2h): 116
- Caspase ([1]; 0.01 µM, 24h): 115
- Caspase ([1]; 0.1 µM, 2h): 117
- Caspase ([1]; 0.1 µM, 24h): 115
- Caspase ([1]; 1 µM, 2h): 90
- Caspase ([1]; 1 µM, 24h): 110
- Caspase ([1]; 10 µM, 2h): 93
- Caspase ([1]; 10 µM, 24h): 129
- ATP ([2]; 0.01 µM, 2h): 98
- ATP ([2]; 0.01 µM, 24h): 102
- ATP ([2]; 0.1 µM, 2h): 99
- ATP ([2]; 0.1 µM, 24h): 99
- ATP ([2]; 1 µM, 2h): 101
- ATP ([2]; 1 µM, 24h): 98
- ATP ([2]; 10 µM, 2h): 104
- ATP ([2]; 10 µM, 24h): 102
- IC50 (ROCK1): 14.5 nM
- BR ([3]; 0.01 µM, 2h): 107
- Base Imp ([3]; 0.01 µM, 2h): 87
- BR ([3]; 0.01 µM, 24h): 100
- Base Imp ([3]; 0.01 µM, 24h): 88
- BR ([3]; 0.1 µM, 2h): 106
- Base Imp ([3]; 0.1 µM, 2h): 86
- BR ([3]; 0.1 µM, 24h): 101
- Base Imp ([3]; 0.1 µM, 24h): 81
- BR ([3]; 1 µM, 2h): 110
- Base Imp ([3]; 1 µM, 2h): 80
- BR ([3]; 1 µM, 24h): 107
- Base Imp ([3]; 1 µM, 24h): 69
- BR ([3]; 10 µM, 2h): 112
- Base Imp ([3]; 10 µM, 2h): 68
- BR ([3]; 10 µM, 24h): 115
- Base Imp ([3]; 10 µM, 24h): 65
- Effect on base impedance, in words ([3]; hSC-CMs, 2 and 24 h): concentration-and time-dependent decrease in base impedance; also recorded: concentration-dependent effects

SMILES: CC(C)(C)NS(=O)(=O)c1cncc(-c2cc(F)c3nc(N)nn3c2)c1 [CZC24832]
- activity at 0.01 µM ([1]; 0.01 µM, 2h): 87%
- activity at 0.01 µM ([1]; 0.01 µM, 24h): 79%
- activity at 0.1 µM ([1]; 0.1 µM, 2h): 132%
- activity at 0.1 µM ([1]; 0.1 µM, 24h): 88%
- activity at 1 µM ([1]; 1 µM, 2h): 109%
- activity at 1 µM ([1]; 1 µM, 24h): 68%
- activity at 10 µM ([1]; 10 µM, 2h): 102%
- activity at 10 µM ([1]; 10 µM, 24h): 76%
- Apoptosis (caspase-3/7 activation), result in words ([1]; hSC-CMs, monitored over 24 h): no effect
- viability at 0.01 µM ([2]; 0.01 µM, 2h): 100%
- viability at 0.01 µM ([2]; 0.01 µM, 24h): 100%
- viability at 0.1 µM ([2]; 0.1 µM, 2h): 99%
- viability at 0.1 µM ([2]; 0.1 µM, 24h): 97%
- viability at 1 µM ([2]; 1 µM, 2h): 99%
- viability at 1 µM ([2]; 1 µM, 24h): 97%
- viability at 10 µM ([2]; 10 µM, 2h): 101%
- viability at 10 µM ([2]; 10 µM, 24h): 100%
- Effect on ATP level, in words ([2]; hSC-CMs, up to the highest test concentrations): did not have any effect
- IC50 (PI3K p110γ): 27 nM
- IC50 (PI3K p110β): 1100 nM
- activity at 0.01 µM ([3]; 0.01 µM, 2h, read-out: BR): 100%
- activity at 0.01 µM ([3]; 0.01 µM, 2h, read-out: Base Imp): 98%
- activity at 0.01 µM ([3]; 0.01 µM, 24h, read-out: BR): 96%
- activity at 0.01 µM ([3]; 0.01 µM, 24h, read-out: Base Imp): 99%
- activity at 0.1 µM ([3]; 0.1 µM, 2h, read-out: BR): 95%
- activity at 0.1 µM ([3]; 0.1 µM, 2h, read-out: Base Imp): 98%
- activity at 0.1 µM ([3]; 0.1 µM, 24h, read-out: BR): 98%
- activity at 0.1 µM ([3]; 0.1 µM, 24h, read-out: Base Imp): 97%
- activity at 1 µM ([3]; 1 µM, 2h, read-out: BR): 97%
- activity at 1 µM ([3]; 1 µM, 2h, read-out: Base Imp): 96%
- activity at 1 µM ([3]; 1 µM, 24h, read-out: BR): 98%
- activity at 1 µM ([3]; 1 µM, 24h, read-out: Base Imp): 93%
- activity at 10 µM ([3]; 10 µM, 2h, read-out: BR): 94%
- activity at 10 µM ([3]; 10 µM, 2h, read-out: Base Imp): 93%
- activity at 10 µM ([3]; 10 µM, 24h, read-out: BR): 97%
- activity at 10 µM ([3]; 10 µM, 24h, read-out: Base Imp): 89%
- Change in the hSC-CMs parameters (surface plots: beating rate, base impedance, ATP) ([3]; hSC-CMs, 2 and 24 h): below 20%
- Effect on hSC-CMs function (base impedance and beating rate), in words ([3]; hSC-CMs, 2 and 24 h): did not have any effect
